Measurements reported in patent US8476455B2, “1-N-phenyl-amino-1h-imidazole derivatives and pharmaceutical compositions containing them” (Laboratoire Theramex, priority 2003, dated 2013).
Entries after “also recorded” stand apart in the source; their conditions may differ.

Tests used:
human aromatase = target: T1, human aromatase (Homo sapiens, UniProt P11511); assay: Dual aromatase and steroid sulfatase activities in JEG-3 cells: aromatase readout; format: cell-based; settings: footnote c: dual aromatase and sulfatase activity, nd: not detected, read-out: Aromatase activity IC50 (nM) ± S.E.M.
T1 construct: The JEG-3 cell line, derived from a human placental choriocarcinoma, constitutively overexpresses human aromatase; endogenous in cells; host or cells: JEG-3 (human placental choriocarcinoma)
T1 sequence (P11511 1-503): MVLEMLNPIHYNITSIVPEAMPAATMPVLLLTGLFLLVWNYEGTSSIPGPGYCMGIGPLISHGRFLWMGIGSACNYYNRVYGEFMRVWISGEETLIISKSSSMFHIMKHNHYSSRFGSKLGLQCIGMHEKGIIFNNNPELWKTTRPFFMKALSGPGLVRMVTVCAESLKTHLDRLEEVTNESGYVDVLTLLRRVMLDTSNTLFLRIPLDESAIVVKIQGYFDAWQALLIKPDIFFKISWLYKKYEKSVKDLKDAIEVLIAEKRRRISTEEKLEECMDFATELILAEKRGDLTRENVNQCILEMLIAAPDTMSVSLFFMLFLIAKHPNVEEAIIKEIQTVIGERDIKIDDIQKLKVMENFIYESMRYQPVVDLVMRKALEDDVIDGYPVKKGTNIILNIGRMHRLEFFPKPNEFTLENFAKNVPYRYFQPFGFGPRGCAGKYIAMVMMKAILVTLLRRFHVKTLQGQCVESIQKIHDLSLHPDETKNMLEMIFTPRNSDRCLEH
Procedure: Assays were carried out with cells in logarithmic growth phase on 96-well microplates. 24 h before studies, cells were seeded in decomplemented fetal calf serum (dFCS) supplemented medium. The medium was removed 24 h later and cells were rinsed with PBS to eliminate any trace of dFCS. Then, ^3H-E1S was added in dFCS free medium, followed by test compounds at concentrations ranging from 10^−12 M to 10^−5 M. After 4 h of treatment, the medium was transferred into 96-deep-well microplates and centrifuged at 200×g for 10 min to pellet cells before toluene extraction. A fraction of the medium was used for toluene extraction in order to separate the conjugated substrate from non-conjugated products. The radioactivity in the toluene phase was measured by liquid scintillation counting. […] Finally, estrone sulfatase activity was expressed in pmoles of ^3H-E1+^3H-E2 formed/4 hours/mg DNA and estrone sulfatase inhibition as a percentage of control activity without inhibitor.
In order to evaluate the inhibitory potency of DASI compounds in parallel on both human aromatase and steroid sulfatase activities, a new in vitro model was set up using JEG-3 cells. The experimental conditions of the steroid sulfatase model previously described was adopted with slight modifications: the presence of the two substrates ^3-HE1S and 1β-^3H-androstenedione into the medium and an incubation period of 2 hours. Results were expressed in pmoles of product formed (^3H-E1+^3H-E2 or ^3H2O)/2 hours/mg DNA (Table 1).

[1] = target: human carbonic anhydrase II (Homo sapiens, UniProt P00918); assay: Human carbonic anhydrase II activity (p-nitrophenyl acetate, colorimetric); format: biochemical; settings: read-out: Human carbonic anhydrase II activity IC50 (nm) ± S.E.M.
Procedure: Briefly, in this assay, human carbonic anhydrase II catalyses the conversion of p-nitrophenyl acetate into pnitrophenol. The potential inhibitory effect of test compounds was evaluated by colorimetric determination of prnitrophenol produced during the enzymatic reaction. The optical density levels obtained without inhibitor will be referred to as “total activity”. The levels obtained without Inhibitor and without the enzyme will be referred to as “blank” in order to assess any interference with the substrate during the assay (Table 2).

Ishikawa cells = assay: Alkaline phosphatase activity in Ishikawa cells (estrogenic potency); format: cell-based; settings: hydrochloride
Procedure: Ishikawa cells were plated into 96-well microplates 48 hours before studies. The next day, the medium was replaced by phenol red free medium supplemented with 5% charcoal-stripped dFCS. 24 hours later, the medium was renewed and compounds were added to the plated cells and incubated for an additional four-day period. […] At the end of the incubation period, alkaline phosphatase activity (APase) was assayed by a method involving the hydrolysis of p-nitrophenyl phosphate to p-nitrophenol and spectrophotometric determination of the product at 405 nm.
In brief, the microplates were first rinsed twice with cold phosphate buffered solution and then placed at −80° C. for at least 15 minutes. After thawing at room temperature, 50 μl ice-cold solution containing 5 mM p-nitrophenyl phosphate was added to each well. After a 15 to 60 minute incubation period at room temperature, the intensity of the yellow color generated by the production of p-nitrophenol was measured into each well at 405 nm.
For each tested concentration, APase activity, reflected by absorbance, was first expressed as fold increase over control (FI) and then as percentage of E2 activity (10^-8 M) chosen equal to 100%.

IC50 (human aromatase): < 1 nM
IC50 [1]: 16.2 ± 3.3 nM
SMILES: Cl.N#Cc1ccc(N(Cc2ccc(OS(N)(=O)=O)c(Br)c2)n2ccnc2)cc1 [Ex 45, Sulfamic acid 2-bromo-4-{[N-(4-cyanophenyl)-N-(1H-imidazol-1yl)amino]methyl}phenyl ester, hydrochloride]
estrogenicity in vitro (in words) (Ishikawa cells): not estrogenic; also recorded: lack of estrogenicity
